From ChEMBL document CHEMBL2429768, “Eco-friendly synthesis and antimicrobial activities of substituted-5-(1H-indol-3-yl)methylene)-2,2-dimethyl-1,3-dioxane-4,6-dione derivatives” (2013)
Values after ≈ are worked out from the molar mass of the structure shown.

Key:
Format in all cases: functional
[1] = system: Rhizoctonia solani; assay: Antifungal activity against Rhizoctonia solani at 200 ug/ml after 72 hrs by agar well diffusion method; conditions: read-out: DIZ
[2] = system: Aspergillus niger; assay: Antifungal activity against Aspergillus niger after 72 hrs by agar well diffusion method
[3] = system: Bacillus subtilis; assay: Antibacterial activity against Bacillus subtilis at 300 ug/ml after 24 hrs by agar well diffusion method; conditions: read-out: DIZ
[4] = system: Rhizoctonia solani; assay: Antifungal activity against Rhizoctonia solani at 100 ug/ml after 72 hrs by agar well diffusion method; conditions: read-out: DIZ
[5] = system: Aspergillus flavus; assay: Antifungal activity against Aspergillus flavus at 200 ug/ml after 72 hrs by agar well diffusion method; conditions: read-out: DIZ
[6] = system: Rhizoctonia solani; assay: Antifungal activity against Rhizoctonia solani at 500 ug/ml after 72 hrs by agar well diffusion method; conditions: read-out: DIZ
[7] = system: Escherichia coli; assay: Antibacterial activity against Escherichia coli ATCC 8739 at 500 ug/ml after 24 hrs by agar well diffusion method; conditions: ATCC 8739, 24 h, read-out: DIZ
[8] = system: Staphylococcus aureus; assay: Antibacterial activity against Staphylococcus aureus ATCC 6538 at 200 ug/ml after 24 hrs by agar well diffusion method; conditions: ATCC 6538, 24 h, read-out: DIZ
[9] = system: Fusarium oxysporum; assay: Antifungal activity against Fusarium oxysporum after 72 hrs by agar well diffusion method
[10] = system: Staphylococcus aureus; assay: Antibacterial activity against Staphylococcus aureus ATCC 6538 at 300 ug/ml after 24 hrs by agar well diffusion method; conditions: ATCC 6538, 24 h, read-out: DIZ
[11] = system: Klebsiella pneumoniae; assay: Antibacterial activity against Klebsiella pneumoniae after 24 hrs by agar well diffusion method
[12] = system: Fusarium oxysporum; assay: Antifungal activity against Fusarium oxysporum at 500 ug/ml after 72 hrs by agar well diffusion method; conditions: read-out: DIZ
[13] = system: Rhizoctonia solani; assay: Antifungal activity against Rhizoctonia solani at 300 ug/ml after 72 hrs by agar well diffusion method; conditions: read-out: DIZ
[14] = system: Klebsiella pneumoniae; assay: Antibacterial activity against Klebsiella pneumoniae at 300 ug/ml after 24 hrs by agar well diffusion method; conditions: read-out: DIZ
[15] = system: Fusarium oxysporum; assay: Antifungal activity against Fusarium oxysporum at 50 ug/ml after 72 hrs by agar well diffusion method; conditions: read-out: DIZ
[16] = system: Bacillus subtilis; assay: Antibacterial activity against Bacillus subtilis at 50 ug/ml after 24 hrs by agar well diffusion method; conditions: read-out: DIZ
[17] = system: Escherichia coli; assay: Antibacterial activity against Escherichia coli ATCC 8739 at 50 ug/ml after 24 hrs by agar well diffusion method; conditions: ATCC 8739, 24 h, read-out: DIZ
[18] = system: Aspergillus flavus; assay: Antifungal activity against Aspergillus flavus at 50 ug/ml after 72 hrs by agar well diffusion method; conditions: read-out: DIZ
[19] = system: Aspergillus niger; assay: Antifungal activity against Aspergillus niger at 200 ug/ml after 72 hrs by agar well diffusion method; conditions: read-out: DIZ
[20] = system: Bacillus subtilis; assay: Antibacterial activity against Bacillus subtilis at 200 ug/ml after 24 hrs by agar well diffusion method; conditions: read-out: DIZ
[21] = system: Staphylococcus aureus; assay: Antibacterial activity against Staphylococcus aureus ATCC 6538 at 50 ug/ml after 24 hrs by agar well diffusion method; conditions: ATCC 6538, 24 h, read-out: DIZ
[22] = system: Aspergillus niger; assay: Antifungal activity against Aspergillus niger at 500 ug/ml after 72 hrs by agar well diffusion method; conditions: read-out: DIZ
[23] = system: Klebsiella pneumoniae; assay: Antibacterial activity against Klebsiella pneumoniae at 100 ug/ml after 24 hrs by agar well diffusion method; conditions: read-out: DIZ
[24] = system: Fusarium oxysporum; assay: Antifungal activity against Fusarium oxysporum at 300 ug/ml after 72 hrs by agar well diffusion method; conditions: read-out: DIZ
[25] = system: Aspergillus flavus; assay: Antifungal activity against Aspergillus flavus at 300 ug/ml after 72 hrs by agar well diffusion method; conditions: read-out: DIZ
[26] = system: Escherichia coli; assay: Antibacterial activity against Escherichia coli ATCC 8739 at 300 ug/ml after 24 hrs by agar well diffusion method; conditions: ATCC 8739, 24 h, read-out: DIZ
[27] = system: Rhizoctonia solani; assay: Antifungal activity against Rhizoctonia solani after 72 hrs by agar well diffusion method
[28] = system: Aspergillus flavus; assay: Antifungal activity against Aspergillus flavus after 72 hrs by agar well diffusion method
[29] = system: Staphylococcus aureus; assay: Antibacterial activity against Staphylococcus aureus ATCC 6538 at 100 ug/ml after 24 hrs by agar well diffusion method; conditions: ATCC 6538, 24 h, read-out: DIZ
[30] = system: Staphylococcus aureus; assay: Antibacterial activity against Staphylococcus aureus ATCC 6538 at 500 ug/ml after 24 hrs by agar well diffusion method; conditions: ATCC 6538, 24 h, read-out: DIZ
[31] = system: Klebsiella pneumoniae; assay: Antibacterial activity against Klebsiella pneumoniae at 50 ug/ml after 24 hrs by agar well diffusion method; conditions: read-out: DIZ
[32] = system: Bacillus subtilis; assay: Antibacterial activity against Bacillus subtilis at 100 ug/ml after 24 hrs by agar well diffusion method; conditions: read-out: DIZ
[33] = system: Escherichia coli; assay: Antibacterial activity against Escherichia coli ATCC 8739 at 100 ug/ml after 24 hrs by agar well diffusion method; conditions: ATCC 8739, 24 h, read-out: DIZ
[34] = system: Aspergillus niger; assay: Antifungal activity against Aspergillus niger at 100 ug/ml after 72 hrs by agar well diffusion method; conditions: read-out: DIZ
[35] = system: Aspergillus niger; assay: Antifungal activity against Aspergillus niger at 50 ug/ml after 72 hrs by agar well diffusion method; conditions: read-out: DIZ
[36] = system: Aspergillus flavus; assay: Antifungal activity against Aspergillus flavus at 100 ug/ml after 72 hrs by agar well diffusion method; conditions: read-out: DIZ
[37] = system: Escherichia coli; assay: Antibacterial activity against Escherichia coli ATCC 8739 at 200 ug/ml after 24 hrs by agar well diffusion method; conditions: ATCC 8739, 24 h, read-out: DIZ
[38] = system: Bacillus subtilis; assay: Antibacterial activity against Bacillus subtilis at 500 ug/ml after 24 hrs by agar well diffusion method; conditions: read-out: DIZ
[39] = system: Staphylococcus aureus; assay: Antibacterial activity against Staphylococcus aureus ATCC 6538 after 24 hrs by agar well diffusion method; conditions: ATCC 6538, 24 h
[40] = system: Fusarium oxysporum; assay: Antifungal activity against Fusarium oxysporum at 200 ug/ml after 72 hrs by agar well diffusion method; conditions: read-out: DIZ
[41] = system: Klebsiella pneumoniae; assay: Antibacterial activity against Klebsiella pneumoniae at 200 ug/ml after 24 hrs by agar well diffusion method; conditions: read-out: DIZ
[42] = system: Bacillus subtilis; assay: Antibacterial activity against Bacillus subtilis after 24 hrs by agar well diffusion method
[43] = system: Aspergillus flavus; assay: Antifungal activity against Aspergillus flavus at 500 ug/ml after 72 hrs by agar well diffusion method; conditions: read-out: DIZ
[44] = system: Escherichia coli; assay: Antibacterial activity against Escherichia coli ATCC 8739 after 24 hrs by agar well diffusion method; conditions: ATCC 8739, 24 h
[45] = system: Aspergillus niger; assay: Antifungal activity against Aspergillus niger at 300 ug/ml after 72 hrs by agar well diffusion method; conditions: read-out: DIZ
[46] = system: Klebsiella pneumoniae; assay: Antibacterial activity against Klebsiella pneumoniae at 500 ug/ml after 24 hrs by agar well diffusion method; conditions: read-out: DIZ
[47] = system: Rhizoctonia solani; assay: Antifungal activity against Rhizoctonia solani at 50 ug/ml after 72 hrs by agar well diffusion method; conditions: read-out: DIZ
[48] = system: Fusarium oxysporum; assay: Antifungal activity against Fusarium oxysporum at 100 ug/ml after 72 hrs by agar well diffusion method; conditions: read-out: DIZ

SMILES: COc1ccc2c(c1)c(C=C1C(=O)OC(C)(C)OC1=O)cn2C
- zone of inhibition at 200 µg/mL [1]: 16 mm
- MIC [2]: 40 µg/mL (≈ 127 µM)
- zone of inhibition at 300 µg/mL [3]: 14 mm
- zone of inhibition at 100 µg/mL [4]: 12 mm
- zone of inhibition at 200 µg/mL [5]: 12 mm
- zone of inhibition at 500 µg/mL [6]: 29 mm
- zone of inhibition at 500 µg/mL [7]: 31 mm
- zone of inhibition at 200 µg/mL [8]: 13 mm
- MIC [9]: 35 µg/mL (≈ 111 µM)
- zone of inhibition at 300 µg/mL [10]: 16 mm
- MIC [11]: 15 µg/mL (≈ 47.6 µM)
- zone of inhibition at 500 µg/mL [12]: 29 mm
- zone of inhibition at 300 µg/mL [13]: 21 mm
- zone of inhibition at 300 µg/mL [14]: 23 mm
- zone of inhibition at 50 µg/mL [15]: 7 mm
- zone of inhibition at 50 µg/mL [16]: 4 mm
- zone of inhibition at 50 µg/mL [17]: 8 mm
- zone of inhibition at 50 µg/mL [18]: 4 mm
- zone of inhibition at 200 µg/mL [19]: 14 mm
- zone of inhibition at 200 µg/mL [20]: 11 mm
- zone of inhibition at 50 µg/mL [21]: 6 mm
- zone of inhibition at 500 µg/mL [22]: 25 mm
- zone of inhibition at 100 µg/mL [23]: 14 mm
- zone of inhibition at 300 µg/mL [24]: 21 mm
- zone of inhibition at 300 µg/mL [25]: 15 mm
- zone of inhibition at 300 µg/mL [26]: 20 mm
- MIC [27]: 35 µg/mL (≈ 111 µM)
- MIC [28]: 40 µg/mL (≈ 127 µM)
- zone of inhibition at 100 µg/mL [29]: 10 mm
- zone of inhibition at 500 µg/mL [30]: 26 mm
- zone of inhibition at 50 µg/mL [31]: 9 mm
- zone of inhibition at 100 µg/mL [32]: 9 mm
- zone of inhibition at 100 µg/mL [33]: 13 mm
- zone of inhibition at 100 µg/mL [34]: 10 mm
- zone of inhibition at 50 µg/mL [35]: 6 mm
- zone of inhibition at 100 µg/mL [36]: 9 mm
- zone of inhibition at 200 µg/mL [37]: 15 mm
- zone of inhibition at 500 µg/mL [38]: 22 mm
- MIC [39]: 25 µg/mL (≈ 79.3 µM)
- zone of inhibition at 200 µg/mL [40]: 16 mm
- zone of inhibition at 200 µg/mL [41]: 18 mm
- MIC [42]: 30 µg/mL (≈ 95.1 µM)
- zone of inhibition at 500 µg/mL [43]: 23 mm
- MIC [44]: 15 µg/mL (≈ 47.6 µM)
- zone of inhibition at 300 µg/mL [45]: 18 mm
- zone of inhibition at 500 µg/mL [46]: 32 mm
- zone of inhibition at 50 µg/mL [47]: 7 mm
- zone of inhibition at 100 µg/mL [48]: 12 mm
